The numbers were not newly measured in patent US6710026B1, “Protein domains in the hepatic glycogen-targetting subunit of protein phosphatase 1 and methods of making and using the same” (Medical Research Counsel, priority 1998, dated 2004), which cites them from elsewhere.

The data set relates to PP1. The following applies: recent studies; cited from earlier work.

Take “GM 63-75: peptide of amino acids 63 to 75 of GM (RVSFADSFGFNLV; UniProt Q16821 63-75, looked up, fragment)”: the “binding to PP1” value is reported as “shown to bind PP1”.
